{"source": "patent US20190314379A1", "about": "“METHODS OF USING CANNABINOID CB2 RECEPTOR AGONIST COMPOSITIONS TO SUPPRESS AND PREVENT OPIOID TOLERANCE AND WITHDRAWAL IN A SUBJECT” (Indiana University Research and Technology Corporation, priority 2018, published 2019)", "key": {"[1]": {"target": "T1, mouse CB2 receptors (Mus musculus, UniProt P47936)", "T1 construct": "expressed in transfected cells", "T1 sequence (P47936 whole entry)": "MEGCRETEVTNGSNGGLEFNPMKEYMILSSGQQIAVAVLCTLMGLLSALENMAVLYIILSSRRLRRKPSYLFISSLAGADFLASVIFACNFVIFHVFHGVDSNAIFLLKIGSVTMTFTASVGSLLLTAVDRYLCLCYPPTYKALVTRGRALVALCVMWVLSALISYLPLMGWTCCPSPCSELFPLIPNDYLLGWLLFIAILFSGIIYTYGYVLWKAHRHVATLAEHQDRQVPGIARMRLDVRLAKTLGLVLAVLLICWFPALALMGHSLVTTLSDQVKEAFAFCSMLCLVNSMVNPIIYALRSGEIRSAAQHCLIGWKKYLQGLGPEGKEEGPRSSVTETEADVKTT", "assay": "Arrestin recruitment (PathHunter CHO K1CNR2, enzyme complementation)", "format": "cell-based"}, "[2]": {"target": "T1, mouse CB2 receptors", "assay": "Myo-inositol phosphate-1 (IP1) accumulation, HEK mCB2", "format": "cell-based", "details": "via mouse CB2"}, "[3]": {"target": "T2, human CB2 (Homo sapiens, UniProt P34972)", "T2 sequence (P34972 whole entry)": "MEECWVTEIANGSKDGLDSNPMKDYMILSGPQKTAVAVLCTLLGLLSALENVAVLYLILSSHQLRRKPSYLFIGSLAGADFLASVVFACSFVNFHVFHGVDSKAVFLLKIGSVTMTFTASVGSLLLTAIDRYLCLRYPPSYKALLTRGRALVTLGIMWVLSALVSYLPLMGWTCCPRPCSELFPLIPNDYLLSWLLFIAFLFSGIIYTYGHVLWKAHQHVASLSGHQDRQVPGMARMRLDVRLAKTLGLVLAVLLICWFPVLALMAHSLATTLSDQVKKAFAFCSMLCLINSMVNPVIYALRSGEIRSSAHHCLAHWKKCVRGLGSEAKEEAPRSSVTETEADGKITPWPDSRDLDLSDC", "assay": "Myo-inositol phosphate-1 (IP1) accumulation, HEK hCB2", "format": "cell-based", "parameters": "expressed in transfected cells", "details": "via human CB2"}, "[4]": {"target": "T1, mouse CB2 receptors", "assay": "Forskolin-stimulated cAMP accumulation (cyclase), HEK mCB2", "format": "cell-based", "details": "for Emax: read-out: Cyclase Emax"}, "[5]": {"tested_on": "osteoarthritic knee pain", "details": "cited from earlier work"}, "[6]": {"target": "T1, mouse CB2 receptors", "assay": "On-cell western for receptor internalization, HEK mCB2", "format": "cell-based"}, "[7]": {"target": "T2, human CB2", "assay": "Phosphorylated ERK1/2 detection, HEK hCB2", "format": "cell-based", "parameters": "expressed in transfected cells", "details": "for Emax: read-out: pERK1/2 Emax"}}, "note": "“Also recorded” adds a separate entry of the source. Read-outs that look alike come from different tables or passages of the source."}
{"smiles": "Cc1nc(N2CCN(C)CC2)c2nc(-c3ccccc3Cl)n(C3CCOCC3)c2n1", "note": "[LY2828360, 8-(2-chlorophenyl)-2-methyl-6-(4-methylpiperazin-1-yl)-9-(tetrahydro-2H-pyran-4-yl)-9H-purine]", "values": [{"measurement": "arrestin recruitment", "setting": "[1]; CHO cells expressing mCB2, 90-minute drug incubation", "result": "failed to do so"}, {"measurement": "Emax", "setting": "[1]; mouse CB2, 90 mins incubation, read-out: Arrestin Emax", "result": 97.9, "unit": "%"}, {"measurement": "IP1 accumulation", "setting": "[2]", "result": "did not affect IP1 accumulation"}, {"measurement": "IP1 accumulation", "setting": "[3]", "result": "did not affect IP1 accumulation"}, {"measurement": "forskolin-stimulated cAMP after PTX treatment", "setting": "[4]; mCB2, 1 μM, PTX 300 ng/ml overnight", "result": "failed to affect cyclase levels at all time points"}, {"measurement": "time of efficacious inhibition of forskolin-stimulated adenylyl cyclase", "setting": "[4]; mCB2, 1 μM, time course", "result": 30, "unit": "min"}, {"measurement": "inhibition of forskolin-stimulated cAMP accumulation in presence of SR144528", "setting": "[4]; mCB2, 30-minute incubation, 1 μM SR144528 (SR2)", "result": "completely blocked"}, {"measurement": "inhibition of forskolin-stimulated cAMP accumulation, concentration response", "setting": "[4]; mCB2, 5 minutes", "result": "had no effect"}, {"measurement": "inhibition of forskolin-stimulated cAMP accumulation, concentration response", "setting": "[4]; mCB2, 30 minutes", "result": "potent, efficacious, and CB2 receptor mediated"}, {"measurement": "Emax", "setting": "[4]; mouse CB2, 05 mins incubation", "result": 18.9, "unit": "%"}, {"measurement": "EC50", "setting": "[4]; mouse CB2, 30 mins incubation, read-out: Cyclase EC50", "result": 13.6, "unit": "nM"}, {"measurement": "Emax", "setting": "[4]; mouse CB2, 30 mins incubation", "result": 53.4, "unit": "%"}, {"measurement": "risks or discomforts in human subjects", "setting": "[5]; osteoarthritic pain, up to 80 mg for 4 weeks", "result": "No specific risks or discomforts"}, {"measurement": "primary endpoint vs placebo / relief of osteoarthritis pain", "setting": "[5]; patients with osteoarthritic knee pain, phase 2", "result": "ineffective in relieving pain associated with osteoarthritis; also recorded: did not differ"}, {"measurement": "receptor internalization", "setting": "[6]; HEK mCB2", "result": "failed to internalize the receptor; also recorded: less potent and efficacious"}, {"measurement": "EC50", "setting": "[6]; mouse CB2, 90 mins incubation, read-out: Internalization EC50", "result": 30.7, "unit": "nM"}, {"measurement": "Emax", "setting": "[6]; mouse CB2, 90 mins incubation, read-out: Internalization Emax", "result": 19.1, "unit": "%"}, {"measurement": "ERK1/2 phosphorylation time course", "setting": "[7]; hCB2, 1 pM", "result": "increased ERK1/2 phosphorylation after 30 minutes, but not at 5 minutes"}, {"measurement": "ERK1/2 phosphorylation after PTX treatment", "setting": "[7]; hCB2, 1 pM, PTX", "result": "abolished ERK1/2 phosphorylation"}, {"measurement": "stimulated phosphorylation of ERK1/2 in presence of SR144528", "setting": "[7]; hCB2, SR144528 (1 pM)", "result": "completely blocked"}, {"measurement": "Emax", "setting": "[7]; human CB2, 05 mins incubation", "result": 22.1, "unit": "%"}, {"measurement": "Emax", "setting": "[7]; human CB2, 30 mins incubation", "result": 32.3, "unit": "%"}]}
